Measurements taken from PubChem BioAssay (NCI).
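Following 48 hours of exposure in 96-well plates, responses at five concentrations were used to interpolate endpoints linearly. The concentration for 50% growth inhibition is given as GI50. TGI: concentration producing complete growth inhibition.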

What was measured:
Assay in all cases: NCI anticancer screen, dose series, 48 h
[1] = system: MALME-3M melanoma
[2] = system: SK-MEL-2 melanoma
[3] = system: CCRF-CEM leukemia
[4] = system: SR leukemia
[5] = system: RXF 393 renal
[6] = system: UACC-257 melanoma
[7] = system: SF-268 CNS
[8] = system: OVCAR-5 ovarian
[9] = system: IGROV1 ovarian
[10] = system: A498 renal
[11] = system: SNB-75 CNS
[12] = system: 786-0 renal
[13] = system: A549 NSCLC
[14] = system: LOX IMVI melanoma
[15] = system: HT29 colon
[16] = system: T-47D breast
[17] = system: UO-31 renal
[18] = system: MDA-MB-231 breast
[19] = system: NCI-H522 lung
[20] = system: SN12C renal
[21] = system: OVCAR-3 ovarian
[22] = system: U251 CNS
[23] = system: HL-60(TB) leukemia
[24] = system: HOP-92 NSCLC
[25] = system: HCC-2998 colon
[26] = system: UACC-62 melanoma
[27] = system: BT-549 breast
[28] = system: NCI-H23 lung
[29] = system: KM12 colon
[30] = system: SW-620 colon
[31] = system: SF-295 CNS
[32] = system: RPMI-8226 leukemia
[33] = system: SK-MEL-5 melanoma
[34] = system: EKVX NSCLC
[35] = system: MCF7 breast
[36] = system: DU-145 prostate
[37] = system: NCI-H460 lung
[38] = system: COLO 205 colon
[39] = system: SK-OV-3 ovarian
[40] = system: NCI-H226 lung
[41] = system: CAKI-1 renal
[42] = system: HCT-116 colon
[43] = system: PC-3 prostate
[44] = system: TK-10 renal
[45] = system: HOP-62 NSCLC
[46] = system: NCI/ADR-RES ovarian
[47] = system: M14 melanoma
[48] = system: OVCAR-4 ovarian
[49] = system: MDA-MB-435
[50] = system: HS 578T breast
[51] = system: OVCAR-8 ovarian
[52] = system: ACHN renal
[53] = system: SK-MEL-28 melanoma
[54] = system: SNB-19 CNS
[55] = system: K-562 leukemia
[56] = system: HCT-15 colon

Question: Which GI50 [1] does the source give for `COc1cc(OC)cc(Oc2nc3cc(N)cc(N)c3nc2-c2ccccc2)c1` here?
Answer: Its GI50 is 0.426 µM.

Question: And the TGI [1]?
Answer: The TGI was 5.09 µM.

Question: And the GI50 [2]?
Answer: Its GI50 is 2.29 µM.

Question: What about the TGI [2] of the same molecule?
Answer: The TGI was 10.2 µM.

Question: And the GI50 [3]?
Answer: Its GI50 is 1.97 µM.

Question: And the TGI [3]?
Answer: Its TGI is 8.67 µM.

Question: What about the GI50 [4] of the same molecule?
Answer: The GI50 was 1.85 µM.

Question: What about the TGI [4] of the same molecule?
Answer: The TGI was 28.9 µM.

Question: And the TGI [5]?
Answer: Its TGI is 4.41 µM.

Question: And the GI50 [6]?
Answer: Its GI50 is 2.19 µM.

Question: What about the TGI [6] of the same molecule?
Answer: Its TGI is 12.3 µM.

Question: And the GI50 [7]?
Answer: The GI50 was 1.75 µM.

Question: What about the TGI [7] of the same molecule?
Answer: The TGI was 7.13 µM.

Question: What about the GI50 [8] of the same molecule?
Answer: Its GI50 is 3.24 µM.

Question: And the TGI [8]?
Answer: Its TGI is 16.4 µM.

Question: What about the GI50 [9] of the same molecule?
Answer: The GI50 was 2.62 µM.

Question: What about the TGI [9] of the same molecule?
Answer: Its TGI is 12.3 µM.

Question: What about the TGI [10] of the same molecule?
Answer: The TGI was 14.4 µM.

Question: And the GI50 [11]?
Answer: The GI50 was 0.127 µM.

Question: And the TGI [11]?
Answer: The TGI was 2.67 µM.

Question: What about the TGI [12] of the same molecule?
Answer: The TGI was 11.4 µM.

Question: What about the GI50 [13] of the same molecule?
Answer: The GI50 was 2.88 µM.

Question: What about the TGI [13] of the same molecule?
Answer: The TGI was 13.2 µM.

Question: What about the GI50 [14] of the same molecule?
Answer: Its GI50 is 2.95 µM.

Question: And the TGI [14]?
Answer: The TGI was 13 µM.

Question: And the GI50 [15]?
Answer: Its GI50 is 4.37 µM.

Question: And the TGI [15]?
Answer: Its TGI is 17.8 µM.

Question: And the GI50 [16]?
Answer: Its GI50 is 2.37 µM.

Question: What about the TGI [16] of the same molecule?
Answer: The TGI was 9.13 µM.

Question: And the TGI [17]?
Answer: The TGI was 15.3 µM.

Question: And the GI50 [18]?
Answer: The GI50 was 4.02 µM.

Question: And the TGI [18]?
Answer: Its TGI is 21.8 µM.

Question: What about the GI50 [19] of the same molecule?
Answer: The GI50 was 0.891 µM.

Question: And the TGI [19]?
Answer: Its TGI is 4.31 µM.

Question: And the TGI [20]?
Answer: The TGI was 22.3 µM.

Question: What about the GI50 [21] of the same molecule?
Answer: Its GI50 is 2.22 µM.

Question: And the TGI [21]?
Answer: The TGI was 8.65 µM.

Question: And the GI50 [22]?
Answer: Its GI50 is 2.6 µM.

Question: What about the TGI [22] of the same molecule?
Answer: Its TGI is 10.8 µM.

Question: What about the GI50 [23] of the same molecule?
Answer: The GI50 was 3.07 µM.

Question: And the TGI [23]?
Answer: Its TGI is 25.9 µM.

Question: And the GI50 [24]?
Answer: Its GI50 is 1.36 µM.

Question: And the TGI [24]?
Answer: Its TGI is 8.9 µM.

Question: And the GI50 [25]?
Answer: Its GI50 is 2.52 µM.

Question: And the TGI [25]?
Answer: Its TGI is 13.7 µM.

Question: And the GI50 [26]?
Answer: Its GI50 is 4.04 µM.

Question: What about the TGI [26] of the same molecule?
Answer: The TGI was 18 µM.

Question: What about the GI50 [27] of the same molecule?
Answer: The GI50 was 1.49 µM.

Question: What about the TGI [27] of the same molecule?
Answer: The TGI was 6.92 µM.

Question: And the GI50 [28]?
Answer: Its GI50 is 1.69 µM.

Question: What about the TGI [28] of the same molecule?
Answer: Its TGI is 12.7 µM.

Question: What about the GI50 [29] of the same molecule?
Answer: Its GI50 is 1.03 µM.

Question: What about the TGI [29] of the same molecule?
Answer: Its TGI is 6.07 µM.

Question: What about the GI50 [30] of the same molecule?
Answer: Its GI50 is 2.26 µM.

Question: And the TGI [30]?
Answer: The TGI was 10.2 µM.

Question: And the GI50 [31]?
Answer: The GI50 was 2.21 µM.

Question: What about the TGI [31] of the same molecule?
Answer: Its TGI is 8.49 µM.

Question: What about the TGI [32] of the same molecule?
Answer: Its TGI is 8.42 µM.

Question: What about the GI50 [33] of the same molecule?
Answer: The GI50 was 1.89 µM.

Question: And the TGI [33]?
Answer: The TGI was 6.47 µM.

Question: And the GI50 [34]?
Answer: Its GI50 is 3.77 µM.

Question: What about the TGI [34] of the same molecule?
Answer: Its TGI is 19.3 µM.

Question: What about the GI50 [35] of the same molecule?
Answer: Its GI50 is 1.69 µM.

Question: And the TGI [35]?
Answer: Its TGI is 4.53 µM.

Question: What about the TGI [36] of the same molecule?
Answer: Its TGI is 25.1 µM.

Question: What about the GI50 [37] of the same molecule?
Answer: The GI50 was 2.92 µM.

Question: And the TGI [37]?
Answer: The TGI was 12.5 µM.

Question: And the GI50 [38]?
Answer: Its GI50 is 10.6 µM.

Question: And the TGI [38]?
Answer: The TGI was 22.4 µM.

Question: And the GI50 [39]?
Answer: Its GI50 is 3.49 µM.

Question: And the TGI [39]?
Answer: The TGI was 16.3 µM.

Question: And the GI50 [40]?
Answer: The GI50 was 6.55 µM.

Question: What about the TGI [40] of the same molecule?
Answer: The TGI was 43 µM.

Question: And the TGI [41]?
Answer: The TGI was 24.1 µM.

Question: And the GI50 [42]?
Answer: Its GI50 is 2.36 µM.

Question: And the TGI [42]?
Answer: Its TGI is 10.1 µM.

Question: And the TGI [43]?
Answer: Its TGI is 17.4 µM.

Question: And the TGI [44]?
Answer: Its TGI is 8.44 µM.

Question: What about the GI50 [45] of the same molecule?
Answer: Its GI50 is 2.14 µM.

Question: And the TGI [45]?
Answer: The TGI was 12.8 µM.

Question: And the GI50 [46]?
Answer: The GI50 was 1.13 µM.

Question: And the TGI [46]?
Answer: Its TGI is 3.85 µM.

Question: What about the GI50 [47] of the same molecule?
Answer: Its GI50 is 1.6 µM.

Question: What about the TGI [47] of the same molecule?
Answer: Its TGI is 7.76 µM.

Question: And the GI50 [48]?
Answer: Its GI50 is 2.89 µM.

Question: What about the TGI [48] of the same molecule?
Answer: Its TGI is 16.2 µM.

Question: What about the GI50 [49] of the same molecule?
Answer: Its GI50 is 0.392 µM.

Question: What about the TGI [49] of the same molecule?
Answer: The TGI was 1.83 µM.

Question: What about the GI50 [50] of the same molecule?
Answer: The GI50 was 1.32 µM.

Question: And the TGI [50]?
Answer: Its TGI is 4.19 µM.

Question: And the GI50 [51]?
Answer: The GI50 was 2.9 µM.

Question: What about the TGI [51] of the same molecule?
Answer: The TGI was 16.3 µM.

Question: What about the TGI [52] of the same molecule?
Answer: Its TGI is 17.9 µM.

Question: What about the GI50 [53] of the same molecule?
Answer: The GI50 was 3.18 µM.

Question: And the TGI [53]?
Answer: Its TGI is 15.5 µM.

Question: And the GI50 [54]?
Answer: Its GI50 is 2.49 µM.

Question: And the TGI [54]?
Answer: The TGI was 12.5 µM.

Question: What about the GI50 [55] of the same molecule?
Answer: Its GI50 is 3.77 µM.

Question: And the TGI [55]?
Answer: Its TGI is 32.4 µM.

Question: What about the GI50 [56] of the same molecule?
Answer: Its GI50 is 2.04 µM.

Question: What about the TGI [56] of the same molecule?
Answer: The TGI was 12.4 µM.
